The source of these data is patent publication US9296741B2, “Bromodomain inhibitors” (priority 2012, dated 2016).

The target in series [1] is human BRD4 second bromodomain (BDII_E352-M457) (Homo sapiens (Human), UniProt O60885). Description: TR-FRET bromodomain binding assay, BRD4 second bromodomain. On the technique in general: In TR-FRET formats the signal depends on donor and acceptor labels being close together.
Series [2] can be described thus: Human liver microsome stability assay. In kind it is in vitro ADME. The conditions noted are these: human, microsomes, pH 7.4; for half-life at 0.5 μM: both sexes. For orientation: Microsomes from liver hold many membrane-bound enzymes, among them those of drug oxidation.
A short description of series [3]: Rat liver microsome stability assay. Conditions: for half-life at 0.5 μM: rat liver microsomes (male Sprague-Dawley), 0.5 μM test compound, 0.25 mg/mL microsomal protein, pH 7.4, 37° C., read-out: Stability in rat liver microsomes (t1/2 in minutes). In kind it is in vitro ADME.
For series [4], the target named is human BRD4 first bromodomain (BDI_K57-E168) (Homo sapiens (Human), UniProt O60885). Description: TR-FRET bromodomain binding assay, BRD4 first bromodomain.
A short description of series [5]: Mouse liver microsome stability assay. In kind it is in vitro ADME. Conditions: microsomes, pH 7.4; for half-life at 0.5 μM: male, CD1, mouse.
The subject of series [6] is breast cancer cell line MX-1. Description: MX-1 cell line proliferation assay. It is filed as cell-based, human. The conditions noted are these: MX-1 cells, 3-day proliferation, Cell Titer Glo, read-out: Cellular proliferation: EC50. A general note: Cellular ATP, detected with luciferase, serves as a proxy for viable cell number.

Where two headings read alike, the source gives them in different places. Some results are limits rather than exact numbers.

What is called Ki is the dissociation constant of the complex between target and ligand, obtained from inhibition or displacement. Lower therefore signals higher affinity. With `Cn1cc(-c2cc(S(=O)(=O)N3CCCC3)ccc2OCC2CC2)c2cc[nH]c2c1=O` [Example 302, 4-[2-(cyclopropylmethoxy)-5-(pyrrolidin-1-ylsulfonyl)phenyl]-6-methyl-1,6-dihydro-7H-pyrrolo[2,3-c]pyridin-7-one], the Ki was 3.5 nM in series [1] and 5.8 nM in series [4]. Besides, the half-life at 0.5 μM in series [2] was determined as 5 min; in series [3], 4 min; in series [5] it was 3 min. The EC50 in series [6] (Homo sapiens, MX1, 72 h) is 16.9 nM.

As for `CCS(=O)(=O)c1ccc(OC2CCN(C(C)=O)CC2)c(-c2cn(C)c(=O)c3[nH]ccc23)c1` [Example 303, 4-{2-[(1-acetylpiperidin-4-yl)oxy]-5-(ethylsulfonyl)phenyl}-6-methyl-1,6-dihydro-7H-pyrrolo[2,3-c]pyridin-7-one], the inhibition constant (Ki) was found to be 7.1 nM in series [1] and 3.9 nM in series [4]. Further, the half-life at 0.5 μM in series [2] is 42 min; in series [3], 69 min; in series [5], more than 120 min. Besides, the EC50 in series [6] (Homo sapiens, MX1, 72 h) came out at 335 nM.

For `CCS(=O)(=O)Nc1ccc(OC2CCC(F)(F)CC2)c(-c2cn(C)c(=O)c3[nH]ccc23)c1` [Example 101, N-{4-[(4,4-difluorocyclohexyl)oxy]-3-(6-methyl-7-oxo-6,7-dihydro-1H-pyrrolo[2,3-c]pyridin-4-yl)phenyl}ethanesulfonamide], the results for the inhibition constant (Ki) in series [1] and in series [4] were 4.3 nM and 1.2 nM, respectively. Further, the half-life at 0.5 μM stood at 92 min in series [2], 12 min in series [3] and 20 min in series [5]. In series [6] (Homo sapiens, MX1, 72 h), the EC50 stood at 11.2 nM.

Turning to `Cn1cc(-c2cc(S(N)(=O)=O)ccc2Oc2ccccc2)c2cc[nH]c2c1=O` [Example 95, 3-(6-methyl-7-oxo-6,7-dihydro-1H-pyrrolo[2,3-c]pyridin-4-yl)-4-phenoxybenzenesulfonamide], the results for the inhibitory constant (Ki) in series [1] and in series [4] were 1.1 nM and 8.7 nM, respectively. Also, the half-life at 0.5 μM is more than 120 min in series [2], 7 min in series [3] and 36 min in series [5]. In series [6] (Homo sapiens, MX1, 72 h), the EC50 worked out at 56 nM.

As to `CCS(=O)(=O)c1ccc(OCC2CC2(F)F)c(-c2cn(C)c(=O)c3[nH]c(C(=O)NCC(F)(F)F)cc23)c1` (stereo not drawn) [Example 327, 4-{2-[(2,2-difluorocyclopropyl)methoxy]-5-(ethylsulfonyl)phenyl}-6-methyl-7-oxo-N-(2,2,2-trifluoroethyl)-6,7-dihydro-1H-pyrrolo[2,3-c]pyridine-2-carboxamide], the inhibition constant (Ki) was determined as 4.2 nM in series [1] and 8.5 nM in series [4]. Moreover, the half-life at 0.5 μM in series [2], in series [3] and in series [5] was more than 120 min in each case. The EC50 in series [6] (Homo sapiens, MX1, 72 h) came to 35.4 nM.

`Cn1cc(-c2cc(C3=CCN(C(=O)OC(C)(C)C)CC3)ccc2OCC2CC2)c2cc[nH]c2c1=O` [Example 325, tert-butyl 4-[4-(cyclopropylmethoxy)-3-(6-methyl-7-oxo-6,7-dihydro-1H-pyrrolo[2,3-c]pyridin-4-yl)phenyl]-3,6-dihydropyridine-1(2H)-carboxylate]: the Ki in series [1] was 199 nM; in series [4], 155 nM. Besides, the half-life at 0.5 μM in series [2] was determined as 21 min; in series [3], 10 min; in series [5], 8 min. In addition, the EC50 in series [6] (Homo sapiens, MX1, 72 h) came to 703 nM.

With `CNS(=O)(=O)c1cnc(OCC2CC2)c(-c2cn(C)c(=O)c3[nH]ccc23)c1` [Example 208, 6-(cyclopropylmethoxy)-N-methyl-5-(6-methyl-7-oxo-6,7-dihydro-1H-pyrrolo[2,3-c]pyridin-4-yl)pyridine-3-sulfonamide], the Ki in series [1] was determined as 6 nM; in series [4], 5.6 nM. In addition, the half-life at 0.5 μM in series [2] turned out to be 88 min; in series [3] it was 23 min; in series [5], 37 min. Also, in series [6] (Homo sapiens, MX1, 72 h), the EC50 was found to be 23.5 nM.

Turning to `CCS(=O)(=O)Nc1ccc(Oc2ccc(F)cc2F)c(-c2cn(C)c(=O)c3[nH]cc(C=O)c23)c1` [Example 349, N-[4-(2,4-difluorophenoxy)-3-(3-formyl-6-methyl-7-oxo-6,7-dihydro-1H-pyrrolo[2,3-c]pyridin-4-yl)phenyl]ethanesulfonamide], the inhibition constant Ki in series [1] came to 3.1 nM; in series [4], 6.6 nM. The half-life at 0.5 μM is more than 120 min in series [2], 39 min in series [3] and 36 min in series [5]. The EC50 in series [6] (Homo sapiens, MX1, 72 h) came to 32.1 nM.

Take `CN(C)S(=O)(=O)Nc1ccc(Oc2ccccc2)c(-c2cn(C)c(=O)c3[nH]ccc23)c1` [Example 22, N,N-dimethyl-N′-[3-(6-methyl-7-oxo-6,7-dihydro-1H-pyrrolo[2,3-c]pyridin-4-yl)-4-phenoxyphenyl]sulfuric diamide]: the Ki worked out at 1 nM in series [1] and 2.2 nM in series [4]. In addition, the results for the half-life at 0.5 μM in series [2], in series [3] and in series [5] were 32 min, 3 min and 10.7 min, respectively. Moreover, the EC50 in series [6] (Homo sapiens, MX1, 72 h) was determined as 65.2 nM.

Consider `Cn1cc(-c2cc(S(C)(=O)=O)ccc2Oc2ccc(F)cc2F)c2cc(CN3CCOCC3)[nH]c2c1=O` [Example 280, 4-[2-(2,4-difluorophenoxy)-5-(methylsulfonyl)phenyl]-6-methyl-2-(morpholin-4-ylmethyl)-1,6-dihydro-7H-pyrrolo[2,3-c]pyridin-7-one], for which the Ki in series [1] was determined as 92 nM; in series [4] it was 19.2 nM. In addition, the results for the half-life at 0.5 μM in series [2], in series [3] and in series [5] were 17 min, 84 min and 36 min, respectively. Further, the EC50 in series [6] (Homo sapiens, MX1, 72 h) came to 292 nM.

As to `Cc1ccc(F)c(Oc2ccc(S(C)(=O)=O)cc2-c2cn(C)c(=O)c3[nH]ccc23)c1` [Example 186, 4-[2-(2-fluoro-5-methylphenoxy)-5-(methylsulfonyl)phenyl]-6-methyl-1,6-dihydro-7H-pyrrolo[2,3-c]pyridin-7-one], the Ki turned out to be 3.3 nM in series [1] and 10.1 nM in series [4]. Also, the half-life at 0.5 μM is 9 min in series [2], 3 min in series [3] and 8 min in series [5]. For the same molecule, the EC50 in series [6] (Homo sapiens, MX1, 72 h) was found to be 48.4 nM.

On to `CCS(=O)(=O)c1ccc(O[C@H]2CC[C@@](C)(O)CC2)c(-c2cn(C)c(=O)c3[nH]ccc23)c1` [Example 211, 4-{5-(ethylsulfonyl)-2-[(cis-4-hydroxy-4-methylcyclohexyl)oxy]phenyl}-6-methyl-1,6-dihydro-7H-pyrrolo[2,3-c]pyridin-7-one], for which the Ki in series [1] was 2.1 nM; in series [4], 1.4 nM. Also, the “Stability in human liver microsomes (t1/2 in minutes)” value in series [2] was 65 min. For the same molecule, the “Stability in rat liver microsomes (t1/2 in minutes)” value in series [3] (rat, microsomes, pH 7.4) amounted to 48 min. The “Stability in mouse liver microsomes (t1/2 in minutes)” value in series [5] (mouse) turned out to be 63 min. Further, the EC50 in series [6] worked out at 11.9 nM.

As to `CC(C)S(=O)(=O)c1ccc(Oc2ccc(F)cc2F)c(-c2cn(C)c(=O)c3[nH]ccc23)c1` [Example 271, 4-[2-(2,4-difluorophenoxy)-5-(propan-2-ylsulfonyl)phenyl]-6-methyl-1,6-dihydro-7H-pyrrolo[2,3-c]pyridin-7-one], the Ki amounted to 1.9 nM in series [1] and 2.9 nM in series [4]. For the same molecule, the results for the half-life at 0.5 μM in series [2], in series [3] and in series [5] were 23 min, 12 min and 11 min, respectively. Further, in series [6] (Homo sapiens, MX1, 72 h), the EC50 was 21.3 nM.

With `CCS(=O)(=O)c1ccc(Oc2cccc(CO)c2)c(-c2cn(C)c(=O)c3[nH]ccc23)c1` [Example 317, 4-{5-(ethylsulfonyl)-2-[3-(hydroxymethyl)phenoxy]phenyl}-6-methyl-1,6-dihydro-7H-pyrrolo[2,3-c]pyridin-7-one], the inhibition constant (Ki) in series [1] came to 3.6 nM; in series [4], 6.7 nM. The half-life at 0.5 μM in series [2] came to 88 min; in series [3], 115 min; in series [5], 83 min. In addition, the EC50 in series [6] (Homo sapiens, MX1, 72 h) stood at 16.8 nM.

For the molecule `Cn1cc(-c2cc(S(C)(=O)=O)ccc2Oc2ccc(F)cc2F)c2cc(CNc3ccccc3)[nH]c2c1=O` [Example 282, 4-[2-(2,4-difluorophenoxy)-5-(methylsulfonyl)phenyl]-6-methyl-2-[(phenylamino)methyl]-1,6-dihydro-7H-pyrrolo[2,3-c]pyridin-7-one], the Ki in series [1] amounted to 72.3 nM; in series [4], 17.3 nM. Besides, the half-life at 0.5 μM in series [2] came out at 9 min; in series [3] it was 21 min; in series [5] it was 7 min. Further, the EC50 in series [6] (Homo sapiens, MX1, 72 h) was determined as 204 nM.

`CCCS(=O)(=O)Nc1ccc(OC2CCOCC2)c(-c2cn(C)c(=O)c3[nH]ccc23)c1` [Example 99, N-[3-(6-methyl-7-oxo-6,7-dihydro-1H-pyrrolo[2,3-c]pyridin-4-yl)-4-(tetrahydro-2H-pyran-4-yloxy)phenyl]propane-1-sulfonamide]: the Ki in series [1] came out at 24.7 nM; in series [4], 3.5 nM. Also, the half-life at 0.5 μM in series [2] was more than 120 min; in series [3] it was 22 min; in series [5], 35 min. The EC50 in series [6] (Homo sapiens, MX1, 72 h) was determined as 97.7 nM.

Turning to `Cn1cc(-c2cc(C(=O)O)ccc2Oc2ccccc2)c2cc[nH]c2c1=O` [Example 10, 3-(6-methyl-7-oxo-6,7-dihydro-1H-pyrrolo[2,3-c]pyridin-4-yl)-4-phenoxybenzoic acid], the Ki is 8.6 nM in series [1] and 15.4 nM in series [4]. Besides, the half-life at 0.5 μM in series [2] is 78 min; in series [3], more than 120 min; in series [5], more than 120 min. Also, in series [6] (Homo sapiens, MX1, 72 h), the EC50 was more than 3000 nM.
